The record followed here is PubChem BioAssay (NCI).

Among the test systems are PC-3 prostate; MCF7 breast; MDA-N.
What all share (assay): NCI anticancer screen, dose series, 48 h

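Where inhibition never reached the appropriate level, the endpoint shown equals the highest concentration tested. Otherwise, values were interpolated linearly from a five-concentration, 48-hour dose response in 96-well plates. The concentration for 50% growth inhibition is given as GI50. TGI: concentration producing complete growth inhibition.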

On to `O=C(Nc1ccc(F)cc1)Nc1ccc(Br)c(C(F)(F)F)c1`, for which, in the test with PC-3 prostate, the GI50 is 0.847 µM and the TGI amounted to 9.24 µM. Also, in the test with MCF7 breast, the GI50 was 2.29 µM and the TGI was determined as 10.3 µM.

Regarding `O=C(CI)Nc1ccc(O)c2ccccc12`, in the test on PC-3 prostate, the GI50 was 2.38 µM and the TGI is 9.69 µM. In the test on MCF7 breast, the GI50 is 0.766 µM and the TGI was determined as 2.35 µM.

For the compound `C[n+]1c2ccccc2nc2ccccc21`, the results for the GI50 in the test on PC-3 prostate and in the test with MCF7 breast were 1.06 µM and 0.353 µM, respectively. Besides, the results for the TGI with PC-3 prostate and with MCF7 breast were 12 µM and 1.59 µM, respectively.

Regarding `COc1ccc(/C=C2\SC(=Nc3ccccc3)NC2=O)cc1`, in the test with PC-3 prostate, the GI50 is 7.69 µM and the TGI is greater than 100 µM. Moreover, in the test on MCF7 breast, the GI50 is 2.68 µM and the TGI was 42.1 µM.

In the case of `COc1ccc(/C(C#N)=C/c2cc(OC)c(OC)c(OC)c2)cc1`, in the test on PC-3 prostate, the GI50 is 15.6 µM and the TGI is 67.9 µM. In addition, in the test with MCF7 breast, the GI50 was 11.1 µM and the TGI is greater than 100 µM.

Take `CC(C)C(=O)c1c(C(F)(F)F)n([O-])c2cc(F)c(F)cc2[n+]1=O`: in the test on PC-3 prostate, the GI50 is 0.521 µM and the TGI came out at 1.13 µM.

Take `CC(=O)NC(CSC1=C2NC(=O)\C=C/C=C/C=C\C(C)C(O)CC(=O)/C(C)=C\CC(O)/C=C/C(C)C(O)C(C)C=C(C)C(=O)c3c(O)c(C)cc(c3C1=O)C2=O)C(=O)O` (configuration not stated): the TGI with PC-3 prostate, in the test on MCF7 breast and in the test on MDA-N was greater than 100 µM throughout.

For the compound `NC(=O)c1cccc(OCC(O)CO)c1` (configuration not stated), the TGI in the test on PC-3 prostate, in the test with MCF7 breast and in the test with MDA-N was greater than 100 µM in each case.

As to `Nc1ccc(COC(O)CN2CCCCC2)cc1[N+](=O)[O-]` (configuration not stated), the TGI with PC-3 prostate, in the test on MCF7 breast and in the test with MDA-N was greater than 100 µM throughout.

Consider `C=C1SC(=Nc2ccccc2Cl)N(C(=O)c2sc3ccccc3c2Cl)C12CCCCC2`, for which, in the test with PC-3 prostate, the GI50 was 4.51 µM and the TGI was greater than 100 µM. In the test on MCF7 breast, the GI50 is 3.95 µM and the TGI was greater than 100 µM.

On to `CC([C@H]1CC=C2C3CCC4=C[C@@H](N(C)C)CC[C@]4(C)C3CC[C@@]21C)N(C)C` (some centres not stated), for which, in the test with PC-3 prostate, the GI50 is 2.15 µM and the TGI came out at 7.72 µM. In the test on MCF7 breast, the GI50 was 1.98 µM and the TGI was found to be 9.4 µM.

`C[C@H]1CNC(=O)c2cnn3ccc(nc23)N[C@H](C)c2cc(F)ccc2O1`: in the test with PC-3 prostate, the GI50 was 1.53 µM and the TGI is greater than 67 µM. Further, in the test with MCF7 breast, the GI50 was 0.381 µM and the TGI was greater than 100 µM.

Consider `NC(N)=NC(N)=NCCCc1ccco1`, for which, in the test with PC-3 prostate, the GI50 was greater than 500 µM and the TGI was greater than 500 µM. In the test on MCF7 breast, the GI50 was 334 µM and the TGI was greater than 500 µM.

Take `C[C@H]1COCCN1c1cc(C2(S(=O)(=O)C3CC3)CC2)nc(-c2ccc(NC(=S)NCCO)cc2)n1`: in the test on PC-3 prostate, the GI50 was less than 0.013 µM and the TGI came to 38.7 µM. In addition, in the test with MCF7 breast, the GI50 was less than 0.01 µM and the TGI is 18 µM.

`C=C1C(=O)O[C@H]2[C@H]1CC/C(COC(=O)CCCc1c[nH]c3ccccc13)=C\CC[C@@]1(C)O[C@@H]21`: the GI50 was 1.92 µM in the test with PC-3 prostate and 1.42 µM in the test on MCF7 breast. Further, the TGI was 4.62 µM with PC-3 prostate and 3.85 µM with MCF7 breast.

As to `O=C(c1ccccc1)c1c(C(F)(F)F)n([O-])c2cc(C(F)(F)F)ccc2[n+]1=O`, in the test on PC-3 prostate, the GI50 was 1.19 µM and the TGI was determined as 2.54 µM. In the test on MCF7 breast, the GI50 is 1.42 µM and the TGI came out at 3.29 µM.

`O=C(/C=C1\C(=O)N(Cc2ccccc2)c2ccccc21)c1ccc(OCCN2CCCCC2)cc1`: in the test on PC-3 prostate, the GI50 was 1.85 µM and the TGI came to 3.92 µM.

As for `O=C(c1ccco1)c1c(C(F)(F)F)n([O-])c2cc(C(F)(F)F)ccc2[n+]1=O`, the figures for the GI50 in the test with PC-3 prostate and in the test on MCF7 breast were 0.163 µM and 0.445 µM, respectively. The TGI in the test with PC-3 prostate is 0.559 µM; in the test with MCF7 breast, 1.95 µM.

As to `CC(=O)O[C@H]1C(=O)[C@@]2(C)[C@H]([C@H](OC(=O)c3ccccc3)[C@]3(O)C[C@H](OC(=O)[C@H](OC(=O)OC[C@H]4COC(C)(C)O4)[C@@H](NC(=O)c4ccccc4)c4ccccc4)C(C)=C1C3(C)C)[C@]1(OC(C)=O)CO[C@@H]1C[C@@H]2O`, the GI50 is 0.0305 µM in the test on PC-3 prostate and 0.00506 µM in the test with MCF7 breast. The TGI with PC-3 prostate and in the test on MCF7 breast was greater than 33.3 µM throughout.

In the case of `Cn1c(-c2ccccc2)c(/C=C/C2=[N+](C)c3ccccc3C2(C)C)c2ccccc21`, the GI50 in the test with PC-3 prostate is 0.575 µM; in the test with MCF7 breast, 0.817 µM. The TGI is 9.16 µM in the test with PC-3 prostate and 10.8 µM in the test on MCF7 breast.

Regarding `CCCCCCCC(=O)SCC/C=C/[C@@H]1CC(=O)NCc2nc(cs2)C2=N[C@@](C)(CS2)C(=O)N[C@@H](C(C)C)C(=O)N1`, in the test on PC-3 prostate, the GI50 was less than 0.0125 µM and the TGI was greater than 100 µM. Also, in the test on MCF7 breast, the GI50 is 0.0198 µM and the TGI was greater than 100 µM.

As for `CC(=O)OC12c3ccccc3-c3ccccc3C1C(C(=O)O)C2C(=O)O` (configuration not stated), the TGI in the test on PC-3 prostate and in the test on MCF7 breast was greater than 10 µM each time.

Consider `C=C1C(=O)O[C@H]2[C@H]1CC/C(COC(=O)OC/C1=C/CC[C@@]3(C)O[C@H]3[C@H]3OC(=O)[C@@H](CN(C)C)[C@@H]3CC1)=C\CC[C@@]1(C)O[C@@H]21`, for which, in the test with PC-3 prostate, the GI50 is 2.7 µM and the TGI came to 7.89 µM.

Regarding `COc1ccc(NC(=O)c2sc3nc(C)c(C(=O)/C=C/c4cccc(OC)c4)cc3c2N)cc1`, in the test with PC-3 prostate, the GI50 is 1.56 µM and the TGI came to 6.55 µM. In addition, in the test with MCF7 breast, the GI50 was 0.339 µM and the TGI was greater than 50 µM.

Consider `Cc1ccc2c(c1)C(=O)c1c-2c(OCCCN(C)C)nc2ccccc12`, for which, in the test on PC-3 prostate, the GI50 was 2.26 µM and the TGI is 7.65 µM. Further, in the test on MCF7 breast, the GI50 was 0.609 µM and the TGI was found to be 2.03 µM.

With `O=C(C#Cc1ccccc1)C1=Cc2ccccc2OC1`, the results for the TGI in the test with PC-3 prostate and in the test on MCF7 breast were 22.2 µM and 3.87 µM, respectively.

Regarding `O=C1C=Cc2c1ccc1ccccc21`, in the test on PC-3 prostate, the GI50 is 13 µM and the TGI is 85.2 µM. Besides, in the test with MCF7 breast, the GI50 was 18.6 µM and the TGI is greater than 100 µM.

Regarding `Nc1nc2cc(CC[C@H]3C[C@@H](n4ccc5c(N)ncnc54)[C@H](O)[C@@H]3O)ccc2cc1Br`, in the test with PC-3 prostate, the GI50 is 11 µM and the TGI was 25.9 µM. For the same compound, in the test on MCF7 breast, the GI50 was 1.82 µM and the TGI is 19.1 µM.

In the case of `O=C1C(=O)c2ccccc2C(O)=C1CCCc1ccc(C2CCCCC2)cc1`, in the test on PC-3 prostate, the GI50 is 0.722 µM and the TGI was found to be 44.8 µM. For the same compound, in the test with MCF7 breast, the GI50 is 4.17 µM and the TGI was 34.2 µM.

In the case of `COC(=O)c1c2c(c(C)[n+]([O-])c1C)C(=O)C=C(NCc1cccc(Cl)c1)C2=O`, the GI50 in the test with PC-3 prostate was 0.257 µM; in the test on MCF7 breast, 0.238 µM. Besides, the TGI with PC-3 prostate turned out to be 2.6 µM; in the test on MCF7 breast, 0.766 µM.

For the compound `COc1cc(C(=O)O[C@H](C(=O)NCCN(C)CCNC(=O)[C@@H](OC(=O)c2cc(OC)cc3c(C)cccc23)[C@]2(C)CO2)[C@]2(C)CO2)c2cccc(C)c2c1`, in the test with MCF7 breast, the GI50 was less than 0.01 µM and the TGI is 0.327 µM.

Take `O=c1oc2cc(OC/C(=N/O)c3ccc(F)cc3)ccc2c2ccccc12`: the GI50 in the test on PC-3 prostate was 22.1 µM; in the test on MCF7 breast it was 14.9 µM. In addition, the results for the TGI with PC-3 prostate and in the test on MCF7 breast were 49.1 µM and 38.4 µM, respectively.

On to `C[C@]12CC[C@H]3[C@@H](CC4SC(N)=NC45C/C(=N/NC(N)=O)CC[C@]35C)[C@@H]1CCC2=O` (some centres not stated), for which the values for the GI50 in the test on PC-3 prostate and with MCF7 breast were 1.25 µM and 1.52 µM, respectively. The TGI in the test on PC-3 prostate came out at 2.75 µM; in the test on MCF7 breast, 3.14 µM.

For `O=CN1N=C(c2cccc(Nc3ccnc4cc(Cl)ccc34)c2)CC1c1ccccc1` (configuration not stated), in the test on PC-3 prostate, the GI50 is 0.306 µM and the TGI was 42.7 µM. In the test on MCF7 breast, the GI50 was 0.311 µM and the TGI is greater than 33 µM.

As to `Clc1ccc2nc(CI)c(CI)nc2c1`, in the test with PC-3 prostate, the GI50 is 7.02 µM and the TGI turned out to be 29.9 µM. Also, in the test with MCF7 breast, the GI50 is 2.87 µM and the TGI was found to be 9.53 µM.

Turning to `Cn1nc(C(F)(F)F)c(-c2cc(C(F)(F)F)cc(C(F)(F)F)c2)c1-c1ccc(OCc2ccc(Cl)cc2)cc1O`, in the test on PC-3 prostate, the GI50 is 1.88 µM and the TGI came to 11.5 µM. For the same compound, in the test on MCF7 breast, the GI50 was 2.23 µM and the TGI was 10.4 µM.

Turning to `N#C/C(=N\Nc1ccccc1)C(=O)Nc1cc(-c2ccccc2)nn1-c1ccccc1`, in the test with PC-3 prostate, the GI50 is 2.13 µM and the TGI was found to be 9.48 µM. For the same compound, in the test on MCF7 breast, the GI50 is 2.46 µM and the TGI was greater than 100 µM.

Take `CC(C)=CC(=O)N[C@H]1CC[C@]2(C)C3CC[C@]4(C)C(C(C)N(C)C)=CCC4C3CCC2[C@H]1O` (some centres not stated): in the test on PC-3 prostate, the GI50 was 3.88 µM and the TGI was determined as 18.1 µM. Further, in the test on MCF7 breast, the GI50 was 3.06 µM and the TGI stood at 13.6 µM.
